Each structure is given as a SMILES string.

In assay [1] the test system is SK-MEL-3 cells. Briefly: SK-MEL-3 cell proliferation assay. Format: cell-based. To be noted: Homo sapiens, SK-MEL3; SK-MEL-3 cells, 72 hours, CellTiter-Glo; read-out: SK-MEL-3 IC50.
The subject of assay [2] is A2058 cells. Briefly: A2058 cell proliferation assay. To be noted: Homo sapiens, 96 hours, CellTiter-Glo. In kind it is cell-based.

On to `O=c1[nH]c2cc3cc(-c4ccc(C(F)(F)F)nc4Cl)ccc3nc2[nH]1` [Example 17, 7-(2-chloro-6-(trifluoromethyl)pyridin-3-yl)-1,3-dihydro-2H-imidazo[4,5-b]quinolin-2-one], for which the IC50 stood at 1.1 nM in assay [1] and 11 nM in assay [2].

Consider `O=c1[nH]c2cc3c(nc2[nH]1)CCN(c1ccc(F)cc1Cl)C3` [Example 21, 7-(2-chloro-4-fluorophenyl)-1,3,5,6,7,8-hexahydro-2H-imidazo[4,5-b][1,6]naphthyridin-2-one], for which the IC50 was found to be 4.5 nM in assay [1] and 38.4 nM in assay [2].

`N#Cc1ccc(N2CCc3nc4[nH]c(=O)[nH]c4cc3C2)c(Cl)c1` [Example 22, 7-(2-chloro-4-cyanophenyl)-1,3,5,6,7,8-hexahydro-2H-imidazo[4,5-b][1,6]naphthyridin-2-one]: the IC50 in assay [1] was found to be 1.6 nM; in assay [2], 11.9 nM.

As to `O=c1[nH]c2cc3c(nc2[nH]1)CCN(c1ncc(F)cc1Cl)C3` [Example 23, 7-(3-chloro-5-fluoropyridin-2-yl)-1,3,6,7,8-hexahydro-2H-imidazo[4,5-b][1,6]naphthyridin-2-one], the IC50 in assay [1] turned out to be 4.4 nM; in assay [2] it was 44.8 nM.

Regarding `O=c1[nH]c2cc3c(Cl)c(-c4ccc(F)cn4)ccc3nc2[nH]1` [Example 24, 8-chloro-7-(5-fluoropyridin-2-yl)-1,3-dihydro-2H-imidazo[4,5-b]quinolin-2-one], the IC50 in assay [1] was 0.9 nM; in assay [2], 2.7 nM.

Consider `[2H]C([2H])([2H])Oc1ccc(-c2ccc3nc4[nH]c(=O)[nH]c4cc3c2)c(Cl)n1` [Example 27, 7-(2-chloro-6-(methoxy-d3)pyridin-3-yl)-1,3-dihydro-2H-imidazo[4,5-b]quinolin-2-one], for which the values for the IC50 in assay [1] and in assay [2] were 3.1 nM and 20.2 nM, respectively.

Consider `[2H]C([2H])([2H])Oc1nc(Cl)ccc1-c1ccc2nc3[nH]c(=O)[nH]c3cc2c1` [Example 28, 7-(6-chloro-2-(methoxy-d3)pyridin-3-yl)-1,3-dihydro-2H-imidazo[4,5-b]quinolin-2-one], for which the figures for the IC50 in assay [1] and in assay [2] were 1.1 nM and 7.9 nM, respectively.

As to `O=c1[nH]c2cc3cc(-c4cnn(C(F)F)c4C(F)(F)F)ccc3nc2[nH]1` [Example 30, 7-(1-(difluoromethyl)-5-(trifluoromethyl)-1H-pyrazol-4-yl)-1,3-dihydro-2H-imidazo[4,5-b]quinolin-2-one], the IC50 was 0.1 nM in assay [1] and 0.9 nM in assay [2].

As to `O=c1[nH]c2cc3cc(-c4cnn(C(F)F)c4Br)ccc3nc2[nH]1` [Example 32, 7-(5-bromo-1-(difluoromethyl)-1H-pyrazol-4-yl)-1,3-dihydro-2H-imidazo[4,5-b]quinolin-2-one], the half-maximal inhibitory concentration (IC50) came out at 0.05 nM in assay [1] and 0.3 nM in assay [2].

With `O=c1[nH]c2cc3cc(-c4onc(C(F)F)c4Cl)ccc3nc2[nH]1` [Example 34, 7-(4-chloro-3-(difluoromethyl)isoxazol-5-yl)-1,3-dihydro-2H-imidazo[4,5-b]quinolin-2-one], the IC50 in assay [1] was determined as 0.09 nM; in assay [2], 0.19 nM.

For `O=c1[nH]c2cc3cc(-c4ccc(C(F)F)nc4Cl)ccc3nc2[nH]1` [Example 35, 7-(2-chloro-6-(difluoromethyl)pyridin-3-yl)-1,3-dihydro-2H-imidazo[4,5-b]quinolin-2-one], the concentration for half-maximal inhibition (IC50) in assay [1] was found to be 0.6 nM; in assay [2], 5.2 nM.

`O=c1[nH]c2cc3cc(-c4ccc(C(F)F)cc4Cl)ccc3nc2[nH]1` [Example 36, 7-(2-chloro-4-(difluoromethyl)phenyl)-1,3-dihydro-2H-imidazo[4,5-b]quinolin-2-one]: the IC50 in assay [1] came out at 0.9 nM; in assay [2] it was 5.2 nM.

In the case of `Cc1c(-c2ccc3nc4[nH]c(=O)[nH]c4cc3c2)cnn1C(F)F` [Example 44, 7-(1-(difluoromethyl)-5-methyl-1H-pyrazol-4-yl)-1,3-dihydro-2H-imidazo[4,5-b]quinolin-2-one], the IC50 was 0.07 nM in assay [1] and 0.17 nM in assay [2].

In the case of `O=c1[nH]c2cc3c(nc2[nH]1)CCN(c1ccc(C(F)(F)F)nc1Cl)C3` [Example 48, 7-(2-chloro-6-(trifluoromethyl)pyridin-3-yl)-1,3,5,6,7,8-hexahydro-2H-imidazo[4,5-b][1,6]naphthyridin-2-one], the results for the IC50 in assay [1] and in assay [2] were 5.2 nM and 74.6 nM, respectively.

Turning to `O=c1[nH]c2cc3c(nc2[nH]1)CCN(c1cnn(C(F)F)c1Cl)C3` [Example 50, 7-(5-chloro-1-(difluoromethyl)-1H-pyrazol-4-yl)-1,3,5,6,7,8-hexahydro-2H-imidazo[4,5-b][1,6]naphthyridin-2-one], the IC50 in assay [1] turned out to be 1.2 nM; in assay [2], 7.5 nM.

Consider `O=c1[nH]c2cc3c(nc2[nH]1)CCN(c1cccc(C(F)(F)F)n1)C3` [Example 58, 7-(6-(trifluoromethyl)pyridin-2-yl)-1,3,5,6,7,8-hexahydro-2H-imidazo[4,5-b][1,6]naphthyridin-2-one], for which the IC50 in assay [1] was 0.3 nM; in assay [2], 1.2 nM.

As to `O=c1[nH]c2cc3c(Cl)c(-c4cnn(C(F)F)c4Cl)ccc3nc2[nH]1` [Example 86, 8-chloro-7-(5-chloro-1-(difluoromethyl)-1H-pyrazol-4-yl)-1,3-dihydro-2H-imidazo[4,5-b]quinolin-2-one], the figures for the IC50 in assay [1] and in assay [2] were 0.09 nM and 0.9 nM, respectively.

The values are drawn from patent US20260265251A1 (priority 2023, published 2026).
